Bounds are passed on as bounds.

Series [1] concerns house fly (Musca domestica). The following applies: in vivo, topical_or_ocular, 1440 min. Here is the method: Investigation of Synergistic Activity on House Fly (Musca domestica) Following Topical Application
In two parallel experiments 10 female. 2-4 day old house flies were treated on the vental side of their thorax with 0.2 μl of the test solution, with the help of Hamilton MicroLab P microdispenser. Beside fixed synergist dose of 1000 ng/fly the animals were treated with carbofuran at a dose of 20 ng/fly. For solvent cellosolve was used. Selection and counting of the flies were performed under the action of CO2. After treatment the flies were kept in plastic cups covered with tulle. Mortality after 24 hours was expressed in %.

For series [2], the system named is cotton bollworm (Helicoverpa armigera). The series can be described thus: Synergistic activity on cotton bollworm following topical application. The following applies: in vivo. Here is the method: Investigation of Synergistic Activity on Cotton Bollworm (Helicoverpa armigera) Following Topical Application
Treatment was performed similarity as described in Example 1. but L2 stadium grubs of cotton bollworms (Helicoverpa armigera) were treated as test animals. From the 24 hour dose--mortality data the LD50 (ng/grub) values were determined using probit analysis. None of the synergists acted at the applied 1000 ng/grub dose. Synergist ratio was calculated as the quotient of the LD50 values of carbofuran administered alone, and with the synergist. The experiments were performed in 2-4 replica.

For series [3], the system named is house fly (Musca domestica). The series can be described thus: Effect of the active ingredient:synergist ratio on the synergistic activity (flies). As for the experimental part:
Effect of the Active Ingredient:Synergist Ratio on the Synergistic Activity
Treatment was performed as described in Example 1. using Hamilton MicroLab P microdispenser. In two parallel experiments 10 female -3 day old flies were treated on the ventral side of their thorax with 0.2 μl test solution. Beside 1000-400-200-80 ng/fly fixed doses of the synergist they were treated with constant 20 ng/fly CARBOFURAN®. Selection and counting of the flies were performed under the action of CO2. After treatment the flies were kept in plastic cups covered with tulle. After 24 hours mortality % was recorded. Depending on the results the experiments were performed in 2-4 replica.

For a further series, the system named is flies. The series can be described thus: Comparative investigations with known reference synergists on flies treated with carbofuran. The following applies: flies treated with carbofuran and 1000 ng of the synergist. It is filed as in vivo. The text has this: These SR50 ratios were compared to those of the new compounds prepared by us.
For series [4], the system named is resistant house fly, INSEL strain. The series can be described thus: Synergistic activity on resistant house fly, INSEL strain. It is filed as in vivo, Musca domestica. The following applies: active ingredient alone. Here is the method:
Investigation of Synergistic Activity on Resistant House Fly (Musca domestica) Populations
Investigation was carried out as described in biological Example 1. LD50 values and synergist ratios were determined as given in Example 2.

Setting [5] is: carbofuran 20 ng/fly + synergist 80 ng/fly.
Where [6] appears, read: carbofuran 20 ng/fly + synergist 200 ng/fly.
Setting [7] is: carbofuran 20 ng/fly + synergist 400 ng/fly.
Where [8] appears, read: house fly, in vivo, topical_or_ocular.

In the case of `CC#CCOC(CC)c1cccc2ccccc12` (stereo not shown) [Compound 454, 1-[1-(2-butynyloxy)-propyl]-naphthalene], the mortality % in series [1] worked out at 75%. Further, the Synergist ratio in series [2] is reported as above 5. In addition, the “24 hour mortality (%)” value in series [3] (setting [5]) is given as 40%; in series [3] (setting [6]) it was 45%; in series [3] (setting [7]), 60%; in series [3] (setting [8]) it was 75%.

For `C#CCOCc1ccc(OC)c(OC)c1` [(2-propynyloxy-methyl)-3,4-dimethoxy-benzene], the “Synergist ratio SR50” value in the series on flies is given as 6.58.

On to `C#CCOc1cccc2ccccc12` [1-naphthyl 2-propargyl ether], for which, in the series on flies, the “Synergist ratio SR50” value was found to be 6.52.

Regarding `CC#CCOC(C)c1ccc2ccccc2c1` (stereo not shown) [Compound 293, 2-[1-(2-butynyloxy)-ethyl]-naphthalene], the mortality % in series [1] is reported as 45%. The Synergist ratio in series [2] is reported as above 5.

With `CC#CCO[C@@H](C)c1cccc2ccccc12` [Compound 330, S-(-)-1-[1-(2-butynyloxy)-ethyl]-naphthalene], in series [1], the mortality % came to 62%. In addition, the Synergist ratio in series [2] was above 5.

In the case of `C#CCOCc1c(Cl)cccc1Cl` [(2,6-dichlorophenyl)methyl 2-propynyl ether], in the series with flies, the “Synergist ratio SR50” value turned out to be 20.92.

As for “5-[(2-propynyl)-methyl]-1,3-benzodioxole”, the “Synergist ratio SR50” value in the series on flies turned out to be 10.60.

In the case of `CC#CCOC(c1ccccc1)c1ccc2c(c1)OCO2` (stereo not shown) [Compound 555, 5-[(But-2-ynyloxy)-phenyl-methyl]-1,3-benzodioxole], the mortality % in series [1] worked out at 90%. Also, the Synergist ratio in series [2] is above 5.

With `CC#CCON=C(C)c1ccc(OC)c(OC)c1` [Compound 572, 3,4-Dimethoxy-acetophenonoxym-(2-butynyl)-ether], the mortality % in series [1] is on record as 55%. The Synergist ratio in series [2] is above 5.

As for `CC#CCOC(c1ccc2c(c1)OCO2)C1CCCCC1` (stereo not shown) [Compound 554, 5-[(But-2-ynyloxy)-cyclohexyl-methyl]-1,3-benzodioxole], the mortality % in series [1] worked out at 58%. Besides, the Synergist ratio in series [2] is above 5.

Consider `CC#CCNC(=O)c1ccc2ccccc2c1` [Compound 535, N-(2-Butynyl)-2-naphthamide], for which the mortality % in series [1] was found to be 27%. Also, in series [2], the Synergist ratio is given as above 5.

Take `CC#CCCOc1ccc([N+](=O)[O-])cc1` [Compound 540, 1-(3-pentynyloxy)-4-nitro-benzene]: in series [1], the mortality % turned out to be 60%. The Synergist ratio in series [2] is given as above 5.

For the molecule `CC#CCOC1CCc2ccccc21` (stereo not shown) [Compound 479, 1-(2-Butynyloxy)-indane], the mortality % in series [1] was 58%. Further, in series [2], the Synergist ratio is above 5.

For `C#CCN(C)C(C)c1ccc2ccccc2c1` (stereo not drawn) [Compound 251, N-α-dimethyl-N-2-propynyl-β-naphthyl-methylamine], in series [1], the mortality % is on record as 37%. For the same molecule, in series [2], the Synergist ratio is listed as above 5.

On to `C#CCCOc1cccc2c1OC(C)(C)C2` [Compound 377, 2,3-dihydro, 2,2-dimethyl-7-(3-butynyloxy)-benzofuran], for which the mortality % in series [1] is on record as 57%. In addition, the Synergist ratio in series [2] is recorded as above 5.

Consider `CC#CCOCC1Cc2ccccc2O1` (stereo not shown) [Compound 539, 2-(2-butynyloxy-methyl)-2,3-dihydro-benzofuran], for which the mortality % in series [1] was determined as 48%. Further, the Synergist ratio in series [2] is above 5.

For `C#CCOc1cccc2c1OC(C)(C)C2` [2,3-dihydro-2,2-dimethyl-7-(2-propynyloxy)benzofurane], the “Synergist ratio SR50” value in the series on flies turned out to be 1.8.

`CC#CCOC(c1cccc2ccccc12)C(C)C` (stereo not shown) [Compound 472, 1-[2-methyl-1-(2-butynyloxy)-propyl]-naphthalene]: the mortality % in series [1] was determined as 68%. Further, in series [2], the Synergist ratio is above 5.

With `CC#CCN1C(=O)c2ccccc2C1=O` [Compound 537, N-(But-2-ynyl)-phthalimide], the Synergist ratio in series [2] was above 5.

Regarding `CC#CCNC(=O)c1ccc2c(c1)OCO2` [Compound 523, N-(2-butynyl) 3,4-methylene-dioxy-benzamide], the mortality % in series [1] came out at 17%. Moreover, in series [2], the Synergist ratio is listed as above 5.

For the molecule `C#CCOC(=O)c1ccc2c(c1)OCO2` [Compound 501, 2-Propynyl 1,3-benzodioxol-5-carboxylate], the mortality % in series [1] worked out at 53%. The Synergist ratio in series [2] is above 5. Further, the “24 hour mortality (%)” value turned out to be 60% in series [3] (setting [5]), 75% in series [3] (setting [6]), 80% in series [3] (setting [7]) and 80% in series [3] (setting [8]).

As to `C#CCOC(C)c1ccc2ccccc2c1` (stereo not shown) [Compound 256, 2-[1-(2-propynyloxy)-ethyl]-naphthalene], the mortality % in series [1] is 32%. Further, in series [2], the Synergist ratio is above 5.

Regarding `CC#CCON=C(C)c1cccc2ccccc12` [Compound 571, 1-Aceto-naphthon-oxim-(2-butynyl)-ether], the mortality % in series [1] turned out to be 53%. For the same molecule, the Synergist ratio in series [2] is given as above 5. Besides, the “Synergist ratio SR50” value in the series on flies was 10.02.

`CC#CCO[C@@H](C)c1ccc2ccccc2c1` [Compound 456, S-(-)-2-[1-(2-butynyloxy)-ethyl]-naphthalene]: the mortality % in series [1] was 47%. In series [2], the Synergist ratio is on record as above 5.

Consider `CC#CCO[C@H](C)c1cccc2ccccc12` [Compound 331, R-(+)-1-[1-(2-butynyloxy)-ethyl]-naphthalene], for which the mortality % in series [1] was 72%. Moreover, the Synergist ratio in series [2] is above 5.

With `C=CCC1=C(C)[C@@H](OC(=O)[C@@H]2[C@@H](C=C(C)C)C2(C)C)CC1=O` [ESBIOL, reference compound], the LD50 in series [4] was 10653 ng/fly.

Take `C#CC(C)OCc1cccc2ccccc12` (stereo not shown) [Compound 389]: the mortality % in series [1] is 27%. Moreover, the Synergist ratio in series [2] is given as above 5.

On to `CC#CCOC(C)c1cccc2ccccc12` (stereo not shown) [Compound 292, 1-[1-(2-butynyloxy)-ethyl]-naphthalene], for which the mortality % in series [1] stood at 72%. In addition, in series [2], the Synergist ratio is above 5.

As for `C#CCO[C@@H](C)c1ccc2ccccc2c1` [Compound 474, S-(-)-2-[1-(2-propynyloxy)-ethyl]-naphthalene], the mortality % in series [1] was determined as 50%. The Synergist ratio in series [2] was above 5.

For `C#CCO[C@H](C)c1ccc2ccccc2c1` [Compound 475, R-(+)-2-1[1-(2-propynyloxy)-ethyl]-naphthalene], the mortality % in series [1] was 47%. Besides, in series [2], the Synergist ratio was above 5.

`C#CCOCC1COc2ccccc2O1` (stereo not shown) [2-[(2-propynyloxy)methyl]-1,4-benzodioxane]: the “Synergist ratio SR50” value with flies was found to be 5.58.

As for `C#CCCOc1cccc2ccccc12` [1-naphthyl 3-butynyl ether], in the series with flies, the “Synergist ratio SR50” value stood at 7.95.

For the molecule `CC#CCCOc1ccc2ccccc2c1` [2-naphthyl 3-pentynyl ether], the “Synergist ratio SR50” value in the series with flies was 9.97.

For the molecule `CC#CCO[C@H](C)c1ccc2ccccc2c1` [Compound 455, R-(+)-2-[1-(2-butynyloxy)-ethyl]-naphthalene], the mortality % in series [1] was 70%. In addition, in series [2], the Synergist ratio was above 5. Moreover, the “24 hour mortality (%)” value in series [3] (setting [5]) stood at 25%; in series [3] (setting [6]), 48%; in series [3] (setting [7]), 63%; in series [3] (setting [8]), 77%.

Consider `C#CCCOc1ccc([N+](=O)[O-])cc1` [Compound 547, 1-(3-butynyloxy)-4-nitro-benzene], for which the mortality % in series [1] is on record as 47%.

`CC#CCOc1ccc2ccccc2c1` [2-naphthyl 2-butynyl ether]: the “Synergist ratio SR50” value with flies is on record as 7.72.

In the case of `C#CCON=C(C)c1cccc2ccccc12` [1-acetonaphthon-oxim (2-propynyl) ether], the “Synergist ratio SR50” value with flies was 7.79.

With `C#CCNC(=O)c1cccc2ccccc12` [Compound 541, N-(2-Propynyl)-1-naphthamide], in series [1], the mortality % worked out at 46%. For the same molecule, the Synergist ratio in series [2] is above 5.

Consider `CC#CCNC(=O)c1cccc2ccccc12` [Compound 542, N-(2-Butynyl)-1-naphthamide], for which the mortality % in series [1] turned out to be 42%. In addition, the Synergist ratio in series [2] was above 5.

Take `CC#CCOC1CCCc2ccccc21` (stereo not shown) [Compound 498, 1-(2-Butynyloxy)-1,2,3,4-tetrahydro-naphthalene]: the mortality % in series [1] turned out to be 70%. Also, the Synergist ratio in series [2] is above 5.

As for `C#CCOCc1cccc2ccccc12` [1-naphthylmethyl 2-propynyl ether], the “Synergist ratio SR50” value in the series on flies was determined as 5.28.

On to `C#CCOC(=O)c1cccc2ccccc12` [2-propynyll-naphthyl-carboxylate], for which, in the series on flies, the “Synergist ratio SR50” value is on record as 4.11.
